Source: patent US20160207950A1, “ORGA[…]-2-CYANO-1-HYDROXYPROPAN-2-YL FOR USE AS ANTHELMINTICS” (UNIVERSITÄT ZÜRICH, priority 2013, published 2016)
Where two headings read alike, the source gives them in different places.

Columns and labels:
[1] = tested on: C. elegans; assay: C. elegans movement inhibition assay
Experimental: C. elegans movement inhibition assay: Asynchronous N2 C. elegans worms (Bristol) were maintained on nematode growth medium (NGM) agar, seeded with a lawn on OP50 E coli as a food-source, according to standard protocol (Maintenance of C. elegans; Stiernagle, T., Ed.; WormBook, 2006.). Worms were harvested from NGM plates by washing with M9 buffer (42 mmol/l Na2HPO4, 22 mmol/l KH2PO4, 86 mmol/l NaCl and 1 mmol/l MgSO4), aspiration and collection in a 10 mL tube (Falcon). The average number of worms in 5 μL of this suspension was calculated by transferring 4×5 μL aliquots to a glass slide (Menzel Glaser), and worms were enumerated under a compound microscope (Olympus CH30). To adjust the suspension to contain 1 worm per μL, M9 buffer was either added or removed after pelleting worms at 600× g for 30 sec.
Dilution of test compounds, Zolvix (monepantel) and DMSO for working stock solutions and 96 well plate set-up for liquid screen: A volume of 70 μL of M9 buffer was added to each well in a 96-well plate, using a multichannel pipettor. A volume of 20 μL of worm suspension was added to each well using a single-channel pipettor, with a trimmed pipette tip (increased aperture to minimize damage to worms). […]
Quantitative worm mobility scoring: Immobile worms were counted as a percentage of total worms in each well using an Olympus SZ30 dissecting microscope. […]

[2] = tested on: Haemonchus Contortus; assay: Activity in vitro against Haemonchus contortus (egg hatch / larval development)
Experimental: (§1) Activity in Vitro against Haemonchus contortus & Trichostrongylus colubriformis (Gastrointestinal nematodes).
(§2) Freshly harvested and cleaned nematode eggs are used to seed a suitably formatted microplate containing the test substances to be evaluated for antiparasitic activity. Each compound is tested by serial dilution in order to determine its MED. The test compounds are diluted in nutritive medium allowing the full development of eggs through to 3rd instar larvae. The plates are incubated for 6 days at 28° C. and 60% relative humidity (RH). Egg-hatching and ensuing larval development are recorded to identify a possible nematocidal activity. Efficacy is expressed in percent reduced egg hatch, reduced development of L3, or paralysis & death of larvae of all stages.

[3] = tested on: H. contortus
[4] = tested on: human cervical cancer HeLa; assay: fluorometric cell viability assay (Resazurin), toxicity towards HeLa; type: cell-based; details: 2 days treatment
Experimental: Cell Culture: Human cervical carcinoma cells (HeLa) were cultured in DMEM (Gibco) supplemented with 5% fetal calf serum (FCS, Gibco), 100 U/ml penicillin, 100 μg ml streptomycin at 37° C. and 5% CO2. The normal human fetal lung fibroblast MRC-5 cell line was maintained in F-10 medium (Gibco) supplemented with 10% FCS (Gibco), 200 mmol/l L-Glutamine, 100 U/ml penicillin, and 100 μg/ml streptomycin at 37° C. and 5% CO2. Toestablish the anticancer potential of the compounds they were tested in one cell line, namely HeLa by a fluorometric cell viability assay using Resazurin (Promocell GmbH). Compounds showing cytotoxicity were then tested on normal MRC-5 cells. 1 day before treatment, cells were plated in triplicates in 96-well plates at a density of 4×10^3 cells/well in 100 μl for HeLa and 7×10^3 cells/well for MRC-5 cells. Cells were treated with increasing concentrations of the compounds for 2 days. After 2 days, medium and drug were removed and […] fresh medium containing Resazurin (0.2 mg/ml final concentration) were added. After 4 h of incubation at 37° C., the highly red fluorescent dye resorufin's fluorescence was quantified at 590 nm emission with 540 nm excitation wavelength in the SpectraMax M5 microplate Reader. […]

[5] = tested on: Trychostrongylus colubriformis; assay: Activity in vitro against Trichostrongylus colubriformis (egg hatch / larval development)
Experimental: as §1, §2

[6] = tested on: Dirofilaria immitis

Row | Substance | mobility of the C. elegans worms (in words) ([1]; 50 μM) | Mobility in C. elegans at 50 μM ([1]; 24 h incubation) | Activity against Haemonchus Contortus at 10 [mg/mL] ([2]; listed as compound 1) | Activity against Haemonchus Contortus at 10 [mg/mL] ([2]; listed as drawing 26) | Number of L3 H. contortus/100 μM [3] | IC50 [4] | Activity against Trychostrongylus colubriformis at 10 [mg/mL] ([5]; listed as compound 1) | Activity against Trychostrongylus colubriformis at 10 [mg/mL] ([5]; listed as drawing 26) | efficacy against dirofilaria immitis (in words) [6] | Activity against Dirofilaria immitis at 10 [mg/mL] ([6]; 10 mg/mL) | Activity against Haemonchus Contortus at 10 [mg/mL] [2] | Activity against Trychostrongylus colubriformis at 10 [mg/mL] [5]
1 | N-(2-cyano-1-(5-cyano-2-(trifluoromethyl)phenoxy)propan-2-yl)ferroceneamide [Compound 1] | significantly reduced | 2% | up to 69% | 69% | >100 | 93.2 µM | up to 69% | 68% |  |  |  | 
2 | N-(2-cyano-1-(5-cyano-2-(trifluoromethyl)phenoxy)propan-2-yl)ruthenoceneamide [Compound 1a] |  |  |  |  |  | > 100 µM |  |  | moderate efficacy | 30% | 0% | 0%
